# “Also recorded” adds a separate entry of the source.
# How the values were obtained:
# [1] = tested on: women suffering from FSD; assay: Vaginal Pulse Amplitude (VPA) response to erotic film in women with FSD, placebo controlled cross-over; type: in vivo, human; conditions: for Vaginal Pulse Amplitude during exposure to erotic stimuli (vaginal arousability) compared with placebo: testosterone 0.5 mg sublingual, Vardenafil 10 mg, four hours after medication; for increase in VPA between neutral and erotic films, before medication (trial 1) versus after medication (trial 4): within drug condition
# From the text: Fourteen women with a heterosexual orientation (mean age: 40.6 years; sd: 10.4; premenopausal n=8, postmenopausal n=6) who have been experiencing FSD (i.e., low sexual desire, low sexual arousal or decreased orgasm potency) for at least six months prior to study entry, participated in this study. Subjects in fertile age used contraceptives (IUDs, sterilization, oral contraceptives except contraceptives containing anti-androgens). A pregnancy test was part of the procedure. Subjects were interviewed and examined by a gynecologist to exclude pregnancy or breast feeding, vaginal infections, major operations to the vagina and/or vulva or unexplained gynecological complaints. […] Cardiovascular condition was tested and ECG was checked for significant abnormalities. Standard blood chemistry and hematology tests were performed. […] Subjects could not make appointments during their period of menstruation.
# Each subject underwent the four different drug treatments (i.e., PDE5 inhibitor, testosterone, PDE5 inhibitor+testosterone and placebo) at four separate experimental days. The four experimental days were separated by at least a three-day period.
# During each day of drug manipulation, subjects underwent the following measurements: • −1:00 hours: Emotional Stroop Task • −0:15 hours: Trial 1 • 0:00 hours: Intake drugs • 0:05 hours: Trial 2 • 2:45 hours: Trial 3 • 4:15 hours: Trial 4
# Each day started with a physical examination (measurements of vital signs, blood pressure, heart rate, temperature and respiration rate). Blood samples (8 ml) were taken for hormone analyses. Subjects then were seated in the sound attenuated, dimly lit experimental room. In order to make this room less “sterile,” geographic posters were hung on the walls and an air perfumer was placed behind the subjects. The subjects then executed the emotional Stroop task (15 minutes). The experimenter brought the vaginal probe and the subject was left alone in the room to insert the probe. The subject was instructed to sit as quietly as possible while viewing the film fragments. A ten-minute neutral fragment was followed by a five-minute erotic film fragment. After these baseline measurements, the subjects took medication: testosterone (0.5 mg or placebo) sublingually, with cyclodextrins as carrier and Vardenafil (10 mg or placebo) hidden in a capsule. The medication was followed by another set of neutral (five minutes) and erotic (five minutes) film fragments. The subjects removed the vaginal probe and were taken to a waiting room for a pause of two hours. During this pause, they could consume their lunch. Unlimited coffee and tea were available. This pause was followed by a third set of neutral (five minutes) and erotic (five minutes) film fragments.
# Again subjects had to wait for two hours so that the last VPA measurement was taken four hours after medication. This last film-trial (neutral, erotic film fragments) was followed by a second presentation of the emotional Stroop. The experimental day ended with a short physical examination including drawing of a blood sample (8 ml for hormone analyses) and collection of AE and SAE.
# During the testosterone condition, one subject became nauseated watching the erotic film and decided not to participate further that day. For the psychophysiological evaluation, the VPA (Vaginal Pulse Amplitude) is used. The VPA reflects phasic changes in the blood volume corresponding with each heartbeat; higher levels indicate higher levels of blood flow. The dependent variable used is the amplitude of the pulse wave. Before the mean VPA was calculated, the raw signal (sample rate was 20 Hz) was digitally bandpass filtered with a Butterworth filter (−3 dB cutoff frequency range 0.7-1.5 Hz; 40 dB down/octave). Movement artifacts were detected by visual inspection of the signal and removed manually. Hereafter, the amplitude was measured as the distance between the top and bottom of a pulse wave. […]
# [2] = tested on: women suffering from Female Sexual Dysfunction; assay: Sexual desire, genital sensations and subjective sexual arousal in women with FSD; type: in vivo, human
# From the text: Attentional engagement is an important function for normal human sexuality.
# [3] = typical value; cited from earlier work
# [4] = tested on: sexually functional women; conditions: cited from earlier work
# [5] = tested on: hypogonadotropic hypogonadal females; assay: Vaginal responsiveness during oral testosterone substitution; type: in vivo, human; conditions: dosed each morning
# Protocol: An important aspect of sexual motivation is physiological sexual responding. […] In both studies, subjects received testosterone each morning, but patients in the first experiment were tested in the afternoon and patients in the second experiment in the morning. The different outcomes on physiological responding between these experiments may be caused by a time-dependent effect of testosterone on vaginal arousal.
# [6] = Plasma level of testosterone after sublingual administration; conditions: single sublingual dose; of short duration
# [7] = tested on: healthy sexually functional women; conditions: 0.5 mg sublingual
# Protocol: In a recently conducted experiment (not published) in healthy sexually functional women, we used a delayed measurement design in which subjects ingested one dosage of testosterone (0.5 mg sublingual) or placebo and after four hours, underwent fMRI while watching neutral and erotic videos. Hereafter, subjects were conducted to a laboratory where their VPA in response to neutral and erotic videos was measured.
# [8] = tested on: healthy sexually functional women; parameters: species or system human; conditions: in vivo
# Protocol: In a recently conducted experiment (not published) in healthy sexually functional women, we used a delayed measurement design in which subjects ingested one dosage of testosterone (0.5 mg sublingual) or placebo and after four hours, underwent fMRI while watching neutral and erotic videos. Hereafter, subjects were conducted to a laboratory where their VPA in response to neutral and erotic videos was measured. […] Because of testosterone's delayed effect on enhancing VPA, we expected enhancement of these “erotic” structures in this fMRI study.
# [9] = tested on: sexually functional women; assay: Vaginal responsiveness to erotic films after a single sublingual dose in sexually functional women
# [10] = tested on: women suffering from FSD
# From the text: An unmasked and a masked version of the Emotional Stroop Task comparing color-naming latencies on neutral and erotic words were used. In both the unmasked and the masked condition, eight erotic and neutral words are presented in different colors (i.e., red, green, blue and yellow). An extra set of stimuli consisting of letter strings was used for practice trials. Subjects were instructed to ignore the content of the words and to name the color of the words as quickly as possible (in the masked condition, the color of the mask has to be named). Each trial consisted of a fixation point which is shown for 750 ms, followed by the target stimulus (the colored neutral or erotic word). In the masked condition, the word picture is presented for about 24 ms and then masked by randomly cut, reassembled letters in the same color. A microphone connected to a voice-level detector was placed in front of the subject. Initiation of vocal response was registered by the computer's clock and terminated the target presentation (with a no-response maximum of 3000 ms). Thirty-two neutral words and thirty-two erotic words were presented blocked. The same words were used for each test, however, the sequence of words and colors differed all eight times this task was used.
# To test for associations with changes in attentional processes, we used the StroopRT as the measurement point. StroopRT is the difference in mean reaction times on color naming of the neutral and the sexual words.
structure (smiles),measurement,setting,value
"CCCc1nc(C)c2c(=O)nc(-c3cc(S(=O)(=O)N4CCN(CC)CC4)ccc3OCC)[nH]n12.Cl [Vardenafil, piperazine, 1-[[3-(1,4-dihydro-5-methyl-4-oxo-7-propylimidazo[5,1-f][1,2,4]triazin-2-yl)-4-ethoxyphenyl]sulfonyl]-4-ethyl-, monohydrochloride]",Vaginal Pulse Amplitude during exposure to erotic stimuli (vaginal arousability) compared with placebo,"[1]; women with FSD, listed as PDE5 inhibitor, monohydrochloride",no effect
same,Vaginal Pulse Amplitude during exposure to erotic stimuli (vaginal arousability) compared with placebo,"[1]; women with FSD, monohydrochloride",did not lead to a significant difference
same,"increase in VPA between neutral and erotic films, before medication (trial 1) versus after medication (trial 4)",[1]; women with FSD,insignificant
same,"sexual desire, genital sensations / subjective sexual arousal compared with placebo",[2],no effect
same,time to peak plasma concentration after administration,[3],about one
"CCCc1nn(C)c2c(=O)[nH]c(-c3cc(S(=O)(=O)N4CCN(C)CC4)ccc3OCC)nc12.O=C(O)CC(O)(CC(=O)O)C(=O)O [sildenafil, 1-[[3-(6,7-dihydro-1-methyl-7-oxo-3-propyl-1Hpyrazolo[4,3-d]pyrimidin-5-yl)-4-ethoxyphenyl]sulfonyl]-4-methylpiperazine citrate]",sexual performance,[4],improves
CCCCCCCCCCC(=O)O[C@H]1CC[C@H]2[C@@H]3CCC4=CC(=O)CC[C@]4(C)[C@H]3CC[C@]12C [testosterone undecanoate],"vaginal responsiveness, first group","[5]; 40 mg orally per day, eight weeks, tested in the afternoon",enhanced
same,"vaginal responsiveness, another group (unpublished data)",[5]; tested in the morning,not found
"C[C@]12CC[C@H]3[C@@H](CCC4=CC(=O)CC[C@@]43C)[C@@H]1CC[C@@H]2O [testosterone, 17-β-hydroxyandrost-4-en-3-one]","VPA to erotic stimuli over trials, sexually abused subjects","[1]; women with FSD sexually abused during childhood, with or without testosterone",no increase
same,"VPA response to the erotic film, not-abused subjects, testosterone versus no-testosterone conditions","[1]; women with FSD, not abused",increases
same,"increase in VPA from before to after measurement, drug conditions containing the steroid versus without the steroid","[1]; women with FSD, interaction F(1.12)=5.75, p<0.04, pooled steroid conditions",significantly higher
same,Vaginal Pulse Amplitude during exposure to erotic stimuli (vaginal arousability) compared with placebo,[1]; women with FSD,no effect; also recorded: insufficient for a significant increase
same,"increase in VPA between neutral and erotic films, before medication (trial 1) versus after medication (trial 4)",[1]; women with FSD,insignificant
same,"sexual desire, genital sensations / subjective sexual arousal compared with placebo",[2],no effect
same,plasma levels of testosterone after intake,[6],sharp increase
same,"relative change in VPA as compared with the placebo, after fMRI procedure",[7],smaller
same,activation of septum and left dorsolateral PFC (fMRI),[8],very significant increase
same,vaginal responsiveness when exposed to visual sexual stimuli,"[9]; eight sexually functional women, single sublingual dose versus placebo",striking increase
same,time lag between plasma testosterone peak and increase in vaginal responsiveness,"[9]; sexually functional women, sublingual",three to four and a half
same,"StroopRT (attention for sexual stimuli), not-abused subjects","[10]; masked condition, decrease = attention for sexual stimuli increases",decreases
same,"StroopRT (attentional bias for sexual stimuli), sexually abused subjects","[10]; masked condition, increase = bias away from sexual stimuli",increases
same,"attentional engagement (or withdrawal) for sexual cues, as compared with placebo and/or a PDE5 inhibitor",[10]; women with FSD,increase

# Reference: patent publication US8227453B2, “Pharmaceutical formulations and uses thereof in the treatment of female sexual dysfunction” (Emotional Brain B.V., priority 2004, dated 2012)
